The results in this text go back to PMC2946083 (Bioorganic & medicinal chemistry letters, 2010).

One assay concerns the target A2A AR (Homo sapiens, UniProt P29274). The assay is described as follows: Radioligand binding at human A2A AR. To be noted: A2A vs A1 and A3 ARs.
The next assay deals with T1, A1 AR (Homo sapiens, UniProt P30542).
T1 sequence (P30542 1-326): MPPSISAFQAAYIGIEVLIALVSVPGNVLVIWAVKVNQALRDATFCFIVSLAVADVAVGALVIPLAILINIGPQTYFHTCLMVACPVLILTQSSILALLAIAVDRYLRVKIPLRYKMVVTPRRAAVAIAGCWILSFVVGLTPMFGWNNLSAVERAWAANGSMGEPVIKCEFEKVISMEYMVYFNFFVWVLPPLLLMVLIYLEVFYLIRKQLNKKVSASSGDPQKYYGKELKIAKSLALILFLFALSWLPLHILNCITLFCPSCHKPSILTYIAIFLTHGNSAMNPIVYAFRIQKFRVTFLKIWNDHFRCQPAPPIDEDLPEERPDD
The experiment in a line: Radioligand binding at human A1 AR.

A2A AR, sequence (P29274 whole entry): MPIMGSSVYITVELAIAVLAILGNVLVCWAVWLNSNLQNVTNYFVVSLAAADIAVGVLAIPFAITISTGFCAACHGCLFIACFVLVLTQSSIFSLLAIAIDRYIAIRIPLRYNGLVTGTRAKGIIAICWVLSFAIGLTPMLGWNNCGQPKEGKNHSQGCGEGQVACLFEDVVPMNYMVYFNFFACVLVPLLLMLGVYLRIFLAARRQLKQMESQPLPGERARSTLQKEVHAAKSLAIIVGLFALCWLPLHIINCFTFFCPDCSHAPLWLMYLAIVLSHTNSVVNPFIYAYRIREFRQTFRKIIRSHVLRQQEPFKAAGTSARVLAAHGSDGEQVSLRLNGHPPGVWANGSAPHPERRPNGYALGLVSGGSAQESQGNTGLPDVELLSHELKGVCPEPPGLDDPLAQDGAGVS

As to `Nc1nc2c(cnn2CCCc2ccc(OCCF)cc2)c2nc(-c3ccco3)nn12` [Compound 5], the “Selectivity for the A2A AR in comparison to the A1 and A3 ARs” value on A2A AR was “highly selective”. This compound registered a Ki on A1 AR of roughly 10 µM.
